Reference: ChEMBL document CHEMBL1201862, “PubChem BioAssay data set” (2004)
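Five compound concentrations were applied to cells in 96-well plates for 48 hours; endpoints were derived by simple linear interpolation of the resulting dose-response curve. Abbreviation: GI50, concentration required for 50% inhibition of growth.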 Calls of active or inactive are those of the source. Cut-off read from the data, not from the text of the source: active = GI50 up to about 1.1 µM and inactive = higher.

Legend:
Assay in all cases: growth of human tumour cells (NCI), 48 h
ACHN = test system: ACHN
CCRF-CEM = test system: CCRF-CEM
COLO 205 = test system: COLO 205
HCT-116 = test system: HCT-116
HOP-92 = test system: HOP-92
LOX IMVI = test system: LOX IMVI
Malme-3M = test system: Malme-3M
NCI-H460 = test system: NCI-H460
NCI-H522 = test system: NCI-H522
OVCAR-3 = test system: OVCAR-3
PC-3 = test system: PC-3
RPMI-8226 = test system: RPMI-8226
SF-268 = test system: SF-268
SF-295 = test system: SF-295
SK-MEL-2 = test system: SK-MEL-2
SK-MEL-5 = test system: SK-MEL-5
SN12C = test system: SN12C
SNB-19 = test system: SNB-19
SNB-75 = test system: SNB-75
UACC-257 = test system: UACC-257

Row | SMILES | GI50 (ACHN) | GI50 (CCRF-CEM) | GI50 (COLO 205) | GI50 (HCT-116) | GI50 (HOP-92) | GI50 (LOX IMVI) | GI50 (Malme-3M) | GI50 (NCI-H460) | GI50 (NCI-H522) | GI50 (OVCAR-3) | GI50 (PC-3) | GI50 (RPMI-8226) | GI50 (SF-268) | GI50 (SF-295) | GI50 (SK-MEL-2) | GI50 (SK-MEL-5) | GI50 (SN12C) | GI50 (SNB-19) | GI50 (SNB-75) | GI50 (UACC-257)
1 | O=C(NNC(=O)c1ccncc1)c1ccncc1 | > 100 µM (inactive) | > 100 µM (inactive) | > 100 µM (inactive) | > 100 µM (inactive) | > 100 µM (inactive) | > 100 µM (inactive) | > 100 µM (inactive) | > 100 µM (inactive) | > 100 µM (inactive) | > 100 µM (inactive) | > 100 µM (inactive) | > 100 µM (inactive) | > 100 µM (inactive) | > 100 µM (inactive) | > 100 µM (inactive) | > 100 µM (inactive) | > 100 µM (inactive) | > 100 µM (inactive) | > 100 µM (inactive) | > 100 µM (inactive)
2 | COc1ccc(/C=C2/CSCC3=C2N=C(S)NC3c2ccc(OC)c(OC)c2OC)c(OC)c1OC (stereo not given) | 19 µM (inactive) | 3.4 µM (inactive) | 19.9 µM (inactive) | 8.09 µM (inactive) | < 0.01 µM (active) | 15.4 µM (inactive) | 23.2 µM (inactive) | 27.6 µM (inactive) | 22.1 µM (inactive) | 43.7 µM (inactive) | 12.1 µM (inactive) | 3.7 µM (inactive) | 16.8 µM (inactive) | 32.6 µM (inactive) | 22.8 µM (inactive) | 11.1 µM (inactive) | 17 µM (inactive) | 20.1 µM (inactive) | 0.209 µM (active) | 14.8 µM (inactive)
3 | COc1c(/C=C/C=O)cc2c(c1OC)OCO2 | 27.3 µM (inactive) | 22.1 µM (inactive) | > 100 µM (inactive) | 34 µM (inactive) | 61.5 µM (inactive) | 24.5 µM (inactive) | 20.7 µM (inactive) | 14.7 µM (inactive) | 78.3 µM (inactive) | 33.2 µM (inactive) | 34.5 µM (inactive) | 14.3 µM (inactive) | 41.1 µM (inactive) | 21.2 µM (inactive) | 23.4 µM (inactive) | 21.1 µM (inactive) | 24.2 µM (inactive) | 16.4 µM (inactive) | > 100 µM (inactive) | 48.1 µM (inactive)
4 | CC(C)C1C(=O)N(c2c(F)c(F)c(F)c(F)c2F)C(=S)N1CC[S+]([O-])c1ccccc1 (stereo not given) | 18.6 µM (inactive) | 18.3 µM (inactive) | 15.5 µM (inactive) | 18.8 µM (inactive) | 9.77 µM (inactive) | 14.4 µM (inactive) | 15.7 µM (inactive) | 19.3 µM (inactive) | 6.49 µM (inactive) | 16.6 µM (inactive) | 15.4 µM (inactive) | 18.8 µM (inactive) | 16.7 µM (inactive) | 18 µM (inactive) | 17.5 µM (inactive) | 14.2 µM (inactive) | 15.8 µM (inactive) | 18.7 µM (inactive) | 26.4 µM (inactive) | 20.2 µM (inactive)
5 | CC(C)=CCc1c2c(c(O)c3c(=O)c4c(oc13)-c1ccc(O)cc1OC4C=C(C)C)C=CC(C)(C)O2 (stereo not given) | 11.8 µM (inactive) | 3.99 µM (inactive) | 21 µM (inactive) | 8.45 µM (inactive) | 7.11 µM (inactive) | 8.61 µM (inactive) | 19.3 µM (inactive) | 13.7 µM (inactive) | 12.4 µM (inactive) | 12.3 µM (inactive) | 12.1 µM (inactive) | 3.54 µM (inactive) | 14.2 µM (inactive) | 14.6 µM (inactive) | 12.6 µM (inactive) | 14.8 µM (inactive) | 6.35 µM (inactive) | 15.3 µM (inactive) | 11.9 µM (inactive) | 15.4 µM (inactive)
6 | Cc1cc(NS(=O)(=O)c2ccc(Nc3c4ccccc4nc4ccc(C(=O)Nc5ccc(S(N)(=O)=O)cc5)cc34)cc2)no1 | > 100 µM (inactive) | > 100 µM (inactive) | > 100 µM (inactive) | > 100 µM (inactive) | > 100 µM (inactive) | > 100 µM (inactive) | > 100 µM (inactive) | > 100 µM (inactive) | > 100 µM (inactive) | > 100 µM (inactive) | > 100 µM (inactive) | > 100 µM (inactive) | > 100 µM (inactive) | > 100 µM (inactive) | > 100 µM (inactive) | > 100 µM (inactive) | > 100 µM (inactive) | > 100 µM (inactive) | > 100 µM (inactive) | > 100 µM (inactive)
